Here are results for 3 molecules from patent publication US8173840B2, “Compounds with high therapeutic index” (Signature R&D Holdings, LLC, priority 2003, dated 2012).

Values joined by “and” are separate entries in the source; they are usually repeats but may differ in a detail not shown here. Equal entries are not always repeated.

The experiment relates to rats. In words: Hypolipidemic property, blood triglycerides in rats on high sugar diet. The note with it: for anti-hyperlipidemic properties: compared with Fenofibrate, hydrochloride; for Triglycerides, Day 7 / Triglycerides, Day zero / Triglycerides, Day 14: individual animals; for Triglycerides, Day 7: after 1 week high sugar diet, before drug; for Triglycerides, Day zero: before diet and drug; for Triglycerides, Day 14: drug day 7-14. It counts as in vivo, rat. The procedure: Rats were checked for time zero triglyceride level in blood. Then the rats were set on high sugar diet, such as 30% sucrose in water for 1 week. Then at the end of 1 week, rats were tested for triglycerides, and were put on normal diet. From day 7-14 the rats were administered either test or control drug. Triglycerides were again tested on the 14th day in rat blood.

In the case of `CC(C)(Oc1ccc(C(=O)c2ccc(Cl)cc2)cc1)C(=O)OC1CN[C@H](C(=O)O)C1.Cl` (stereo partly drawn) [Fen-HP Ester, L-hydroxyproline-fenofibric acid ester, hydrochloride], where the note is “Dose 25 mg/kg”, the “% Change From day 0” value was −32.92%, the “% Change from day 7” value is on record as −59.45%, the “Absolute Change from day 0” value is −16 and the “Absolute Change from day 7” value was −47.8. Also, under “Dose 50 mg/kg”, the “% Change From day 0” value is given as −49.31%, the “% Change from day 7” value was −65.80%, the “Absolute Change from day 0” value was −35.8 and the “Absolute Change from day 7” value is reported as −70.8. Also, under “Dose 100 mg/kg”, the “% Change From day 0” value was −7.52%, the “% Change from day 7” value is listed as −72.82%, the “Absolute Change from day 0” value is −3.4 and the “Absolute Change from day 7” value was −112.
`C[C@@H](OC(=O)C(C)(C)Oc1ccc(C(=O)c2ccc(Cl)cc2)cc1)[C@H](N)C(=O)O.Cl` [Fen-T Ester, L-threonine-fenofibric acid ester, hydrochloride]: under “Dose 25 mg/kg”, the “% Change From day 0” value is −23.21%, the “% Change from day 7” value is −37.68%, the “Absolute Change from day 0” value is listed as −18.2 and the “Absolute Change from day 7” value is listed as −36.4. Besides, under “Dose 50 mg/kg”, the “% Change From day 0” value is −35.00%, the “% Change from day 7” value is −63.71%, the “Absolute Change from day 0” value is given as −23.8 and the “Absolute Change from day 7” value is on record as −77.6. Where the note is “Dose 100 mg/kg”, the “% Change From day 0” value is −68.45%, the “% Change from day 7” value is recorded as −75.04%, the “Absolute Change from day 0” value is recorded as −63.8 and the “Absolute Change from day 7” value is −88.4. In addition, the “anti-hyperlipidemic properties” value (listed as Fenofibric Acid-L-Threonine ester) is given as “overall superior anti-hyperlipidemic properties”. The “anti-hyperlipidemic properties” value (listed as L-Threonine ester) is recorded as “dose dependent decrease in triglycerides”.
Turning to `CC(C)OC(=O)C(C)(C)Oc1ccc(C(=O)c2ccc(Cl)cc2)cc1` [Fenofibrate, reference compound], the “Triglycerides, Day 7” value reads like this: (50 mg/kg group) 150 mg/dL; (200 mg/kg group) 90 mg/dL and 106 mg/dL and 125 mg/dL. The “Triglycerides, Day zero” value is 95 mg/dL and 92 mg/dL and 80 mg/dL (50 mg/kg group); 110 mg/dL and 115 mg/dL and 96 mg/dL (100 mg/kg group); 144 mg/dL and 56 mg/dL and 58 mg/dL (200 mg/kg group). The “Triglycerides, Day 14” value runs as follows: (50 mg/kg) 101 mg/dL and 76 mg/dL and 73 mg/dL; (100 mg/kg) 62 mg/dL and 69 mg/dL and 93 mg/dL; (200 mg/kg) 48 mg/dL and 51 mg/dL and 38 mg/dL. For the same molecule, the “% Change From day 0” value (Dose 25 mg/kg) is −15.21%, the “% Change From day 0” value (Dose 50 mg/kg) is −22.95% and the “% Change From day 0” value (Dose 100 mg/kg) was −61.26%. The “% Change from day 7” value is, setting by setting: (Dose 25 mg/kg) −45.86%; (Dose 50 mg/kg) −66.06%; (Dose 100 mg/kg) −73.51%. Moreover, the “Absolute Change from day 0” value (Dose 25 mg/kg) is on record as −10.8, the “Absolute Change from day 0” value (Dose 50 mg/kg) is listed as −13.4 and the “Absolute Change from day 0” value (Dose 100 mg/kg) is recorded as −40.8. For the same molecule, the “Absolute Change from day 7” value (Dose 25 mg/kg) was −51, the “Absolute Change from day 7” value (Dose 50 mg/kg) is on record as −87.6 and the “Absolute Change from day 7” value (Dose 100 mg/kg) is −71.6.
